This is an account of results in patent US10081633B2, “Adenylyl cyclase inhibitors, pharmaceutical compositions and method of use thereof” (priority 2016, dated 2018).

Test [1] concerns the target T1, type V adenylyl cyclase (Homo sapiens, UniProt O95622).
T1 construct: from tissue; host or cells: heart (cardiomyocyte) membrane preparations from transgenic mice overproducing type V adenylyl cyclase
Kind of test: Adenylyl cyclase membrane assay, type V (cAMP ELISA). In kind it is biochemical, mouse. To be noted: cardiomyocyte membrane preparations from transgenic mice; forskolin 50 μM. On the procedure:
(§1) Compounds were assayed for their ability to attenuate cyclic AMP (cAMP) production in cardiomyocyte membrane preparations isolated from transgenic mice. Transgenic mice were separately bred to overproduce type V adenylyl cyclase, type VI adenylyl cyclase and type II adenylyl cyclase. cAMP levels were determined using a Cyclic AMP Competitive ELISA kit purchased from ThermoFischer Scientific (Cat# EMSCAMPL).
(§2) Buffer A (pH 8) was prepared comprising final concentrations of the following: 50 mM Tris, 1 mM EGTA, 1 mM EDTA, 1 mM DTT, 100 mM sucrose, 20 μg/mL TPCK (protease inhibitor), 20 μg/mL TLCK (protease inhibitor), 1 mM PMSF (protease inhibitor), 10 μg/mL leupeptin (protease inhibitor) and 10 μg/mL aprotinin (protease inhibitor).
(§3) Buffer B (pH 8) was prepared comprising final concentrations of the following: 50 mM Tris, 1 mM EDTA, 100 mM sucrose, 0.2 mM PMSF (protease inhibitor), 2 μg/mL leupeptin (protease inhibitor) and 2 μg/mL aprotinin (protease inhibitor).
Hearts were surgically excised from transgenic mice. Each isolated heart was treated with 3-4 mL of buffer A and cooled to 0 deg C. for 5 minutes. Treated hearts were homogenized for 10 seconds using a Polytron homogenizer cooled to 0 deg C. and set to speed 6. Homogenized hearts were centrifuged at 500×g at 4 deg C. for 10 minutes. Supernatants were transferred to ultracentrifuge tubes and centrifuged at 35,000 rpm at 4 deg C. for 40 minutes. Isolated pellets were combined with buffer B (500 μL) and sonicated to a suspension. Protein concentration was determined using a commercial Bradford assay kit. Membrane preparations were stored at −80 deg C.
Buffer R (pH 8) was prepared comprising final concentrations in water of the following: HEPES (20 mM), magnesium chloride (5 mM), EDTA (0.5 mM), ATP (0.1 mM), phospho creatinine (1 mM), creatinine phosphokinase (8 units/mL), IBMX (200 μM), forskolin (50 μM) or control (DMSO in water).
Inhibitor solutions were prepared by dilution of stock solutions of inhibitors (10 mM in DMSO) to a final concentration of 100 μM in water. Serial dilutions with water were subsequently made in order to determine IC50 values.
Reaction mixtures were prepared comprising buffer R (10 μL), inhibitor or control (10 μL), and water (75 μL).
A reaction mixture was pre-incubated at 30 deg C. for 5 minutes. A membrane preparation (e.g. 5 μL for type V Adenylyl Cyclase comprising 2 μg of membrane protein per 5 μL of preparation) was added and the mixture was incubated at 30 deg C. for 15 minutes. The reaction was stopped by addition of 0.1 M hydrochloric acid (100 μL) and cooled to 0 deg C. The resulting mixture was incubated at 0 deg C. for 60 minutes. The cAMP concentration of the supernatant was measured using a Cyclic AMP Competitive ELISA kit purchased from ThermoFischer Scientific.
(In an ELISA, binding on a coated surface is turned into a signal by an enzyme label.)

Test [2] concerns the target T2, type VI adenylyl cyclase (Homo sapiens, UniProt O43306).
T2 construct: from tissue; host or cells: heart (cardiomyocyte) membrane preparations from transgenic mice overproducing type VI adenylyl cyclase
Kind of test: Adenylyl cyclase membrane assay, type VI (cAMP ELISA). In kind it is biochemical, mouse. The note with it: cardiomyocyte membrane preparations from transgenic mice; forskolin 50 μM. The method, then:
as §1, §2, §3
Hearts were surgically excised from transgenic mice. Each isolated heart was treated with 3-4 mL of buffer A and cooled to 0 deg C. for 5 minutes. Treated hearts were homogenized for 10 seconds using a Polytron homogenizer cooled to 0 deg C. and set to speed 6. Homogenized hearts were centrifuged at 500×g at 4 deg C. for 10 minutes. Supernatants were transferred to ultracentrifuge tubes and centrifuged at 35,000 rpm at 4 deg C. for 40 minutes. Isolated pellets were combined with buffer B (500 μL) and sonicated to a suspension. Protein concentration was determined using a commercial Bradford assay kit. Membrane preparations were stored at −80 deg C. […]
(§4) A reaction mixture was pre-incubated at 30 deg C. for 5 minutes. […] The cAMP concentration of the supernatant was measured using a Cyclic AMP Competitive ELISA kit purchased from ThermoFischer Scientific.

For test [3], the target named is T3, type II adenylyl cyclase (Homo sapiens, UniProt Q08462).
T3 construct: from tissue; host or cells: heart (cardiomyocyte) membrane preparations from transgenic mice overproducing type II adenylyl cyclase
T3 sequence (Q08462 whole entry): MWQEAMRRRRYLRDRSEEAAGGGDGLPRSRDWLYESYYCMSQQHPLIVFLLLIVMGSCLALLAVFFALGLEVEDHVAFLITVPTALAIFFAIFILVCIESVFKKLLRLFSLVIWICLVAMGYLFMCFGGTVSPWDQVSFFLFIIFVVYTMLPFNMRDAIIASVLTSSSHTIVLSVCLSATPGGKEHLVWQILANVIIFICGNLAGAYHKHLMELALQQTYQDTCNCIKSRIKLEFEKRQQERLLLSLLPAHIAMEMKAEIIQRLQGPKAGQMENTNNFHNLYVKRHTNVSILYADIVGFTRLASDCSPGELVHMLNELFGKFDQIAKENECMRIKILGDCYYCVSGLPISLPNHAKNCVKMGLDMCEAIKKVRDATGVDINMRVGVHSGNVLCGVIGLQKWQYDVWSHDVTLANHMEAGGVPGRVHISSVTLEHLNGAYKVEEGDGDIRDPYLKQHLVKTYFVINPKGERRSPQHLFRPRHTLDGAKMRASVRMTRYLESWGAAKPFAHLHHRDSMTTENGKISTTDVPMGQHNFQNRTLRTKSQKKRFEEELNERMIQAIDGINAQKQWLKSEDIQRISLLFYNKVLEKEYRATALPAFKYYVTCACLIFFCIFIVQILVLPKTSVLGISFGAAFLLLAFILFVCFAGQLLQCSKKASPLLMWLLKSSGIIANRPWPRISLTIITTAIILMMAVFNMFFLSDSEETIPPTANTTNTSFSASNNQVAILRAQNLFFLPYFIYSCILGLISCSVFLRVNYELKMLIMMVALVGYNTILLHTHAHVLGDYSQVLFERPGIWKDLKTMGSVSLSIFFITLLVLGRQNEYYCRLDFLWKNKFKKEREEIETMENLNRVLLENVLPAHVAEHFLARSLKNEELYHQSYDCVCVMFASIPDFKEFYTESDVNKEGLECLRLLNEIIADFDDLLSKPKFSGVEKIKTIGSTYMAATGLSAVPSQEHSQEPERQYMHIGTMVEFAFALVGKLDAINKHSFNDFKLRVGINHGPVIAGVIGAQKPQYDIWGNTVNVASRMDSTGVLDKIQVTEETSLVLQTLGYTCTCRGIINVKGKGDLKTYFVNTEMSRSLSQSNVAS
Kind of test: Adenylyl cyclase membrane assay, type II (cAMP ELISA). Type of test: biochemical, mouse. To be noted: cardiomyocyte membrane preparations from transgenic mice; forskolin 50 μM. The method, then:
as §1, §2, §3
Hearts were surgically excised from transgenic mice. Each isolated heart was treated with 3-4 mL of buffer A and cooled to 0 deg C. for 5 minutes. […] Protein concentration was determined using a commercial Bradford assay kit. […]
as §4

The test system of test [4] is H9c2(2-1) myoblast cell line. Kind of test: Adenylyl cyclase cell-based assay, forskolin-stimulated cAMP. The note with it: Rattus norvegicus; H9c2 cells, forskolin 50 μM. The method, then: (§5) H9c2(2-1) myoblast cell line was obtained from ATCC (CRL-1446). Cells (10^5 cells/mL) were seeded in 24-well plates at 5×10^4 cells per well. Cells were allowed to attach over 24 hours. The cells were then washed with PBS. Serum-free DMEM supplemented with 20 mM HEPES and 0.5 mM IBMX was added and the cells were incubated at 37 deg C. for 20 minutes. An Adenylyl Cyclase inhibitor (0.001-100 μM in DMSO/water with DMSO concentration <1%) was added and the mixture was incubated at 37 deg C. for 10 minutes. Forskolin (50 μM in DMSO/water with DMSO concentration <1%) was added and the mixture was incubated at 37 deg C. for 10 minutes. As an alternative to forskolin, isoproterenol (5 mM in DMSO/water with DMSO concentration <1%) was added and the mixture was incubated at 37 deg C. for 15 minutes. The media was removed and the cells were lysed by addition of 0.1 M hydrochloric acid (200 μL) 0 deg C. Lysed mixtures were maintained at 0 deg C. for 10-20 minutes and the plates were then centrifuged at 3,000×g for 5 minutes. cAMP levels in the supernatant were measured using the ThermoScientific cAMP competitive ELISA (EMSCAMPL) kit with samples acetylated in glass or polypropylene tubes.

Test [5] has as its system H9c2(2-1) myoblast cell line. Kind of test: Adenylyl cyclase cell-based assay, isoproterenol-stimulated cAMP. The note with it: Rattus norvegicus; H9c2 cells, isoproterenol 5 mM. On the procedure: as §5

T1 sequence (O95622 whole entry): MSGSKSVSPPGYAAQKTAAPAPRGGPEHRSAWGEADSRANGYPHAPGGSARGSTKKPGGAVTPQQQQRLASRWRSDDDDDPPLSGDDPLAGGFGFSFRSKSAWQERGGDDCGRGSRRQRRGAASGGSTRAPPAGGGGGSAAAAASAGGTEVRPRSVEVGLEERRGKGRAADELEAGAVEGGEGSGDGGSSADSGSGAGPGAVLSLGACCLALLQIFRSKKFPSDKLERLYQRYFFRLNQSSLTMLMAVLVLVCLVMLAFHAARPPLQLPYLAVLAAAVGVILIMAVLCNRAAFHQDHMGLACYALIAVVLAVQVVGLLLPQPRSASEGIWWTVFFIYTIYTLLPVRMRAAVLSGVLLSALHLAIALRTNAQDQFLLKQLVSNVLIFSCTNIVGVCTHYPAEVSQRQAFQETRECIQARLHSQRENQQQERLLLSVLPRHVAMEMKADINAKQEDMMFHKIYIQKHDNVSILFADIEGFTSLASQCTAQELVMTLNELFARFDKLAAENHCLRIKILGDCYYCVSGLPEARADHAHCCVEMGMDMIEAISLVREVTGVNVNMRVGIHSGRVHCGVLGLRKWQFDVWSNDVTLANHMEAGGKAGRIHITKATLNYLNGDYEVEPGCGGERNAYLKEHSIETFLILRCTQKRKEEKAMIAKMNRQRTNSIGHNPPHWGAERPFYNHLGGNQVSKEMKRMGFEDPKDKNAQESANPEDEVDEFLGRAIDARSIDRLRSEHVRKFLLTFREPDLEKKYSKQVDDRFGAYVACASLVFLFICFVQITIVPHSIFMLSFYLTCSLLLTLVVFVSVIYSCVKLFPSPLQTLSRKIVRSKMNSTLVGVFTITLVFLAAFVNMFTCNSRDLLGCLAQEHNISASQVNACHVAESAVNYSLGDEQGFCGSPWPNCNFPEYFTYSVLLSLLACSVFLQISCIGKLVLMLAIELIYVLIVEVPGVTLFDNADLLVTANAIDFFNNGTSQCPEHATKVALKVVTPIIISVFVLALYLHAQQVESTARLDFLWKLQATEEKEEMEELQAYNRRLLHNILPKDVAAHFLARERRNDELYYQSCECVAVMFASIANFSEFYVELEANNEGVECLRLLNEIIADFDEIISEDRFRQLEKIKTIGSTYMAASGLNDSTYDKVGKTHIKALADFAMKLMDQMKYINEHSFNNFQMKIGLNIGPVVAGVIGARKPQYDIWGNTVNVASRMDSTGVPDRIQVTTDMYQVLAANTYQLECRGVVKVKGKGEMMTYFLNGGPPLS
T2 sequence (O43306 whole entry): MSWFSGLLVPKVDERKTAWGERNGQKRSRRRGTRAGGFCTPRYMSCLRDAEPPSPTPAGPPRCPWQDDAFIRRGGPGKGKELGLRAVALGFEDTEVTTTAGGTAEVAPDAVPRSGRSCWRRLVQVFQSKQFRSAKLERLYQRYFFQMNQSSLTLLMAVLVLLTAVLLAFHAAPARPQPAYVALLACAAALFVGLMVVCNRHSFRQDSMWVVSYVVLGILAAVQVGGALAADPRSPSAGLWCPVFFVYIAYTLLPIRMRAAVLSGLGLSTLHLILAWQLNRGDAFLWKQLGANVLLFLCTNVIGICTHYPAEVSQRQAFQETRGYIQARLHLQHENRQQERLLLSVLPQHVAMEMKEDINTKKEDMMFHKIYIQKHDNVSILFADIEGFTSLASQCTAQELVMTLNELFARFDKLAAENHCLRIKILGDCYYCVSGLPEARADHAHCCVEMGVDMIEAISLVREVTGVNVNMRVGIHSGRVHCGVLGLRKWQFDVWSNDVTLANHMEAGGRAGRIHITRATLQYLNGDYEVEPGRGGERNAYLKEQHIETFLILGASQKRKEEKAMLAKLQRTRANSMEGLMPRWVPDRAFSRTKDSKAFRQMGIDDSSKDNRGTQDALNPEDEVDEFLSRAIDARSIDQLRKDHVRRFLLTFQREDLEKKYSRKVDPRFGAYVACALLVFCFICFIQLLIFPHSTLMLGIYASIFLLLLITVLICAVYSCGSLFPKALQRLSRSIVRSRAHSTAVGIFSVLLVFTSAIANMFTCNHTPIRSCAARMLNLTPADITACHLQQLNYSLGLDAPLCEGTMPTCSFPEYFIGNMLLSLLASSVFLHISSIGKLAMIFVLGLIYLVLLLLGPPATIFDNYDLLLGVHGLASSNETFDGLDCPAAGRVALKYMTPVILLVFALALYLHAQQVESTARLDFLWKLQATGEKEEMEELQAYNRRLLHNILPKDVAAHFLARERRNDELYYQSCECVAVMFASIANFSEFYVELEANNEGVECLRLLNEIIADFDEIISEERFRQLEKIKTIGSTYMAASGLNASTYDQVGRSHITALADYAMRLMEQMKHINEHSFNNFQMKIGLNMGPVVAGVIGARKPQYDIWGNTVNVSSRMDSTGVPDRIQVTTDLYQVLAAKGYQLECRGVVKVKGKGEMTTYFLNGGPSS

Usually IC50 stands for the concentration that inhibits the measured activity by half. Low values mean greater potency, high ones weaker potency. Regarding `Nc1nc(F)cc2c1ncn2[C@@H]1CC[C@@H](C(=O)NO)C1` [Compound 10v, (1R,3R)-3-(4-amino-6-fluoro-1H-imidazo[4,5-c]pyridin-1-yl)-N-hydroxycyclopentanecarboxamide], the IC50 in test [1] amounted to 30 nM; in test [2], 30 nM; in test [3] it was 1110 nM; in test [4] it was 1140 nM; in test [5] it was 1890 nM.
